From article PMC9614482, “The superior salinity tolerance of bread wheat cultivar Shanrong No. 3 is unlikely to be caused by elevated Ta-sro1 poly-(ADP-ribose) polymerase activity” (The Plant Cell, 2022)

Experiments:
[1] = target: T1, HsPARP1 catalytic domain (PARP domain) (Homo sapiens, UniProt P09874, L713F); experiment: differential scanning fluorimetry; format: binding; settings: 6(5H)-phenanthridinone concentrations above 2 µM
T1 construct: gene PARP1; recombinant, made in the authors' laboratory; only the L713F variant tested
T1 sequence (P09874 662-1014 L713F limits assumed): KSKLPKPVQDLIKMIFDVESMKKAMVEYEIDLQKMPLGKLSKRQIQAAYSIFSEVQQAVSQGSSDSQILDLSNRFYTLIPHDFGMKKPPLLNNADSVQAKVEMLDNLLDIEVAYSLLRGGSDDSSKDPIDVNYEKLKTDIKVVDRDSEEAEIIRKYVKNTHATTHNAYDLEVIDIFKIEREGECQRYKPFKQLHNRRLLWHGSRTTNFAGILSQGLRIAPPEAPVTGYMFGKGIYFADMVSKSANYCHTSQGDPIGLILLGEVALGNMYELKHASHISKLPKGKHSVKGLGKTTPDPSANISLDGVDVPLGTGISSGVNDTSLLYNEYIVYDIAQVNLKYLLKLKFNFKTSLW

AtPARP2 = target: T2, AtPARP2 (Arabidopsis thaliana, UniProt Q11207); experiment: immunoprecipitated GFP fusion, pan-ADP-ribose immunoblot; format: biochemical; settings: 300 µM β-NAD+ in extraction buffer; auto-ADP-ribosylation, PAR chain formation
T2 construct: gene PARP2; GFP fusion, transiently expressed in Nicotiana benthamiana, immunoprecipitated with GFP-nanobody
T2 sequence (Q11207 whole entry, the tested form may be a part): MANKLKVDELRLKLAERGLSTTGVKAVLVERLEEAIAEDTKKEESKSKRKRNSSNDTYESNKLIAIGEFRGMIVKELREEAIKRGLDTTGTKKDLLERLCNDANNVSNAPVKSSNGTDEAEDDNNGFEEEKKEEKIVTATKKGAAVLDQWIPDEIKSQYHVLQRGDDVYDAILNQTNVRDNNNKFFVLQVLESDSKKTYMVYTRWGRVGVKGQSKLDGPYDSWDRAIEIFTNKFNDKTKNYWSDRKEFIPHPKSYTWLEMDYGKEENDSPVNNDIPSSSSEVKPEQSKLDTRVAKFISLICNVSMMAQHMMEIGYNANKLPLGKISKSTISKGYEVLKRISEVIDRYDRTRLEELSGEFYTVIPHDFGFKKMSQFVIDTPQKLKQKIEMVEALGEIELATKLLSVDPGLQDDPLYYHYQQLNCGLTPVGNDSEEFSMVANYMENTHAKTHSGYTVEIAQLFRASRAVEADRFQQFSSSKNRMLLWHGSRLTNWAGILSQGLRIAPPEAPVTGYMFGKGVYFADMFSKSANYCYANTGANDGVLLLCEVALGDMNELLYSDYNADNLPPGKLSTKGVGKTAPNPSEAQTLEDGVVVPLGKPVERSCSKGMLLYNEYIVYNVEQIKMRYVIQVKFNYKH

HsPARP1 (full-length) = target: T3, HsPARP1 (full-length) (Homo sapiens, UniProt P09874); format: biochemical; settings: histones as substrates
T3 construct: gene PARP1; full-length protein supplied in the PARP Universal Colorimetric Assay Kit (Trevigen)
T3 sequence (P09874 2-1014): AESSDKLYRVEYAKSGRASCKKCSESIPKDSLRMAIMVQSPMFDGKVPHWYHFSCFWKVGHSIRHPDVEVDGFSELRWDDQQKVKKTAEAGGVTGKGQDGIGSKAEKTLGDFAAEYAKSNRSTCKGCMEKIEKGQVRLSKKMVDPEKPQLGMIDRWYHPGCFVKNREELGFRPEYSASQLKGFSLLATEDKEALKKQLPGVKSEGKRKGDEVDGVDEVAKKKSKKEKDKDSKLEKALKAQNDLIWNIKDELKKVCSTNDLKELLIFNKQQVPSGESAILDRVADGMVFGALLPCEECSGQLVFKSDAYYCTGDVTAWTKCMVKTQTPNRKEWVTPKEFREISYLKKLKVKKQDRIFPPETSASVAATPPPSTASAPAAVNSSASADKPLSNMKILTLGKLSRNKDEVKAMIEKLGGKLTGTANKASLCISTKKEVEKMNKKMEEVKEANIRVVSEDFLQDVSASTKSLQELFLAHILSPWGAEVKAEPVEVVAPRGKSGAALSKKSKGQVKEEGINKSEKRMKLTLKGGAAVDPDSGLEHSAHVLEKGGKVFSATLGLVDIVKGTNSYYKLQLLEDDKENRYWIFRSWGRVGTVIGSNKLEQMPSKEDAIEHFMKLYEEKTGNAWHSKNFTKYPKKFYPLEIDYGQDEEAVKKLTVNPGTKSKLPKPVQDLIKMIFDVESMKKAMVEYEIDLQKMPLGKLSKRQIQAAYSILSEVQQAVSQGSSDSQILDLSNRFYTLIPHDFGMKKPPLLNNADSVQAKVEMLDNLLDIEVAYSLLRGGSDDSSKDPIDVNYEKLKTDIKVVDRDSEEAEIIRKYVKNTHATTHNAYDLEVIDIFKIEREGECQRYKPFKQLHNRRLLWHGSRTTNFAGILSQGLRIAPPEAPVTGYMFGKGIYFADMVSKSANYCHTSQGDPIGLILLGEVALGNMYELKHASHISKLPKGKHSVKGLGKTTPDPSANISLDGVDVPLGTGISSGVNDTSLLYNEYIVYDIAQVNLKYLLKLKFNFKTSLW

## O=c1[nH]c2ccccc2c2ccccc12 [6(5H)-phenanthridinone]
[1]
  dTm: ~ +4 °C

## NC(=O)c1ccc[n+]([C@@H]2O[C@H](COP(=O)(O)OP(=O)(O)OC[C@H]3O[C@@H](n4cnc5c(N)ncnc54)[C@H](O)[C@@H]3O)[C@@H](O)[C@H]2O)c1 [NAD+]
AtPARP2
  immunoprecipitated GFP fusion, pan-ADP-ribose immunoblot: canonical Arabidopsis PARP2 enzyme formed PAR chains in a NAD^+-dependent manner

## NC(=O)c1cccc(N)c1 [3-aminobenzamide]
HsPARP1 (full-length)
  colorimetric PARP assay kit, ADP-ribosylation of histones: 3-aminobenzamide (3AB) inhibited ADP-ribosylation of histones by HsPARP1
